Literature values in patent US6703367B1, “Methods for treating hot flashes and gynaecomastia” (Praecis Pharmaceuticals Inc., priority 2001, dated 2004).

How the values were obtained:
gynaecomastia = settings: for men in whom gynaecomastia was reduced: middle aged men
hot flashes = settings: for reduce hot flashes to: progestin therapy

## C#C[C@]1(O)CC[C@H]2[C@@H]3CCC4=Cc5oncc5C[C@]4(C)[C@H]3CC[C@@]21C [DANAZOL]
gynaecomastia
  men in whom gynaecomastia was reduced: approximately 70%

## CC(=O)[C@@]1(O)CC[C@H]2[C@@H]3C[C@H](C)C4=CC(=O)CC[C@]4(C)[C@H]3CC[C@@]21C [Medroxyprgesterone]
Hot flashes
  reduce hot flashes to: 75-100%

## CLOMIPHENE
gynaecomastia; in vivo
  effect on gynaecomastia: unsuccessful

## CC(=O)O[C@]1(C(C)=O)CC[C@H]2[C@@H]3C=C(C)C4=CC(=O)CC[C@]4(C)[C@H]3CC[C@@]21C [Megestrol acetate]
Hot flashes
  reduce hot flashes to: 25-85%

## clonidine
Hot flashes; oral
  effect on hot flashes, orally administered: varied
Hot flashes; transdermal, hot flashes due to Tamoxifen
  effect on hot flashes, administered transdermally: reduced the frequency and severity of hot flashes

## Medthyldopa
Hot flashes; in vivo
  decrease of hot flashes: 30%

## Tamoxifen
gynaecomastia
  men in whom gynaecomastia was reduced: approximately 70%
